Test results as given in PubChem BioAssay (NCI).
Values joined by “and” are separate entries in the source; they are usually repeats but may differ in a detail not shown here. Equal values may be shown once.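 Briefly, cells in 96-well plates were exposed to five compound concentrations for 48 h, and endpoints were estimated by linear interpolation. Abbreviation: GI50, concentration required for 50% inhibition of growth. TGI is the concentration that stops growth completely.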

Experiments:
Test in all cases: growth of human tumour cells (NCI), 48 h
HCT-116 colon = system: HCT-116 colon
MDA-MB-231 breast = system: MDA-MB-231 breast
SNB-19 CNS = system: SNB-19 CNS
HOP-92 NSCLC = system: HOP-92 NSCLC
786-0 renal = system: 786-0 renal
RPMI-8226 leukemia = system: RPMI-8226 leukemia
PC-3 prostate = system: PC-3 prostate
OVCAR-3 ovarian = system: OVCAR-3 ovarian
U251 CNS = system: U251 CNS
OVCAR-4 ovarian = system: OVCAR-4 ovarian

Row | SMILES | TGI (HCT-116 colon) | TGI (MDA-MB-231 breast) [µM] | TGI (SNB-19 CNS) | TGI (HOP-92 NSCLC) [µM] | TGI (786-0 renal) [µM] | TGI (RPMI-8226 leukemia) | TGI (PC-3 prostate) [µM] | TGI (OVCAR-3 ovarian) | TGI (U251 CNS) [µM] | TGI (OVCAR-4 ovarian) [µM] | GI50 (HCT-116 colon) [µM] | GI50 (SNB-19 CNS) [µM] | GI50 (HOP-92 NSCLC) [µM] | GI50 (RPMI-8226 leukemia) [µM] | GI50 (U251 CNS) [µM] | GI50 (OVCAR-4 ovarian) [µM] | GI50 (MDA-MB-231 breast) [µM] | GI50 (PC-3 prostate) [µM] | GI50 (OVCAR-3 ovarian) [µM]
1 | COc1ccc(Cc2nc3cc(Cl)ccc3o2)cc1 | > 100 µM | > 100 | > 100 µM | > 100 | > 100 | 83.9 µM | > 100 | 94.1 µM | > 100 | > 100 | – | – | – | – | – | – | – | – | –
2 | CCOc1cc(NC(C)=O)ccc1C(=O)N/N=C/c1ccco1 | > 100 µM | > 100 | – | > 100 | > 100 | > 100 µM | > 100 | > 100 µM | – | > 100 | – | – | – | – | – | – | – | – | –
3 | C=C1CCCC(C)(C)[C@@H]1CC/C(C)=C/Cn1c2cccc(=O)c-2nc2ccccc21 | 6.62 µM and 2.73 µM | – | 60.2 µM and 15.8 µM | – | – | 9.68 µM and 17.8 µM | – | 18.9 µM and 12.5 µM | – | – | 2.55 | 9.54 | 22.7 | 3.06 | 10.7 | 6.28 | – | – | –
4 | Cc1ccc2c(=O)c(-c3nnsn3)c[nH]c2n1 | > 100 µM | > 100 | > 100 µM | – | > 100 | > 100 µM | > 100 | > 100 µM | > 100 | > 100 | – | – | – | – | – | – | – | – | –
5 | COc1cc(/C=C2\N=C(c3ccccc3)N(c3nc4c(Cl)cc(Cl)cc4s3)C2=O)ccc1O | 59.7 µM | > 100 | > 100 µM | 68 | > 100 | 47.4 µM | 38.3 | 91.9 µM | 75.4 | > 100 | – | – | – | – | – | – | – | – | –
6 | CC(Br)C(=O)c1ccc2cc(Br)c3ccccc3c2c1 (stereo not drawn) | 29.9 µM | 30.2 | 32.7 µM | 30.8 | 11.7 | 21.2 µM | – | 26.6 µM | 26.5 | 32.2 | – | – | – | – | – | – | – | – | –
7 | Clc1ccc(NCc2nnc(COc3ccc(OCc4nnc(CNc5ccc(Cl)cc5)o4)c(Cl)c3)o2)cc1 | > 100 µM | 63.3 | > 100 µM | 83.5 | > 100 | 36.9 µM | > 100 | 93.5 µM | > 100 | – | – | – | – | – | – | – | – | – | –
8 | NC(CCc1ccccc1)(C(=O)O)c1ccccc1 (stereo not drawn) | > 100 µM | > 100 | > 100 µM | > 100 | > 100 | – | > 100 | > 100 µM | > 100 | > 100 | – | – | – | – | – | – | – | – | –
9 | O=P(O)(O)OP(=O)(O)O | > 100 µM | > 100 | > 100 µM | > 100 | > 100 | > 100 µM | > 100 | > 100 µM | > 100 | > 100 | – | – | – | – | – | – | – | – | –
10 | O=C(N/N=C\c1ccc([N+](=O)[O-])cc1)Nc1ccccc1 | > 100 µM | – | > 100 µM | > 100 | – | > 100 µM | > 100 | > 100 µM | > 100 | > 100 | – | – | – | – | – | – | – | – | –
11 | CN(C)c1ccc(/C=C2\C[C@H]3[C@@H]4CCC5=CC(=O)CC[C@]5(C)[C@H]4CC[C@]3(C)C2=O)cc1 | > 100 µM | > 100 | > 100 µM | 66.1 | > 100 | > 100 µM | 66.8 | > 100 µM | 85.6 | > 100 | – | – | – | – | – | – | – | – | –
12 | CN(C)C/C=C(/c1ccc(Br)cc1)c1cccnc1 | > 100 µM | > 100 | > 100 µM | > 100 | > 100 | > 100 µM | > 100 | > 100 µM | > 100 | > 100 | – | – | – | – | – | – | – | – | –
13 | Cc1cc(O)c2c(c1O)C(=O)c1c(O)ccc(O)c1C2=O | > 100 µM | > 100 | > 100 µM | > 100 | > 100 | > 100 µM | > 100 | > 100 µM | > 100 | > 100 | – | – | – | – | – | – | – | – | –
14 | COc1cc(/C=C2/C[C@H]3[C@@H]4CCC5=CC(=O)CC[C@]5(C)[C@H]4CC[C@]3(C)NC2=O)cc(OC)c1OC | > 100 µM | 83.2 | > 100 µM | 39.6 | > 100 | > 100 µM | > 100 | > 100 µM | 57.1 | > 100 | – | – | – | – | – | – | – | – | –
15 | C[C@H](Nc1ccc(C#N)n(C)c1=O)c1cc2cc(Cl)ccc2[nH]c1=O | > 100 µM | 98.4 | > 100 µM | 37.3 | – | 49.3 µM | 83.5 | > 100 µM | > 100 | 85.6 | 23.9 | 32.5 | 2.8 | 14.2 | 30 | 19.3 | 23.2 | 13.3 | 24.1
16 | CC(C)(C)OC(=O)N1C(C2=COc3ccccc3O2)=COc2cccnc21 | 4.98 µM | 4.01 | – | 3.9 | 3.66 | 4.43 µM | 6.04 | 3.31 µM | 3.13 | 4.2 | – | – | – | – | – | – | – | – | –
17 | CCCCCCOC(=O)C(N)Cc1ccc(OC)cc1 (stereo not drawn) | > 100 µM | > 100 | > 100 µM | > 100 | > 100 | – | > 100 | > 100 µM | > 100 | > 100 | – | – | – | – | – | – | – | – | –
18 | O=C(COC(c1ccc(F)cc1)c1ccc(F)cc1)N1CCN(CCCc2ccccc2)CC1 | 10.5 µM | 11.3 | 15.2 µM | 8.02 | 14.1 | 26.3 µM | 11.9 | 13.7 µM | 14.8 | 12.6 | – | – | – | – | – | – | – | – | –
